Results published in patent publication US20150315241A1, “Antibiotic Peptides” (priority 2007, published 2015).
Values after ≈ are worked out from the molar mass of the structure shown. Like-named read-outs stand apart in the source and are kept apart here. Where a SMILES comes first, the peptide text is derived from it. [ ]: non-standard residue; d: D form. The star is where a group is joined. Orn(α-tetramethylguanidino) = CN(C)C(=N[C@@H](CCCN)C(=O)*)N(C)C; Arg(NO2) = N=C(NCCC[C@H](N)C(=O)O)N[N+](=O)[O-]; NMeR = CN[C@@H](CCCNC(=N)N)C(=O)O; Hyp = O=C(O)[C@@H]1C[C@@H](O)CN1; Cha = N[C@@H](CC1CCCCC1)C(=O)O; Cit = NC(=O)NCCC[C@H](N)C(=O)O; Tle = CC(C)(C)[C@H](N)C(=O)O; Orn = NCCC[C@H](N)C(=O)O

What was measured:
M. luteus ATCC 10240 = type: cell-based, Micrococcus luteus
Method: (§1) The minimal inhibition concentrations (MIC) of the apidaecin-derived peptides and peptide-derivatives were determined by a growth inhibition assay using a serial peptide dilution in sterilized round-bottom 96-well plates (polystyrene, U-bottom, Greiner Bio-One GmbH) with a final volume of 100 μL per well. The bacteria, e.g., E. coli BL21 A1, were grown in nutrient broth (NB, Carl Roth GmbH+Co. KG, Karlsruhe, Germany) at 37° C. over night. To each well of the 96-well plate, 50 μL of the overnight culture adjusted to 5×10^6 CFU/mL in 1% TSB were added. Lyophilized peptides and peptidomimetics were dissolved in 1% TSB (tryptic soy broth) or water to give a final concentration of 250 μg/mL. Fifty μL of the peptide or peptidomimetics solution were added to the first well of a row on the plate and mixed. Fifty μL of the first well containing the peptide solution were transferred to the second well, mixed and again 50 μL transferred to the next well and so on. Thereby, a two-fold dilution series was obtained starting at 250 μg/mL in the first well down to 120 ng/mL in the 12th well of a row giving a final peptide or peptidomimetics concentration from 125 μg/mL (well 1) to 60 ng/mL (well 12). Plates were incubated at 37° C. for 20 hrs. The absorbance was measured at 595 nm using a TECAN micro plate spectrophotometer (Tecan, Germany). All peptides and peptidomimetics were measured in triplicates. Sterilized water was used as a negative control.
(§2) The bacteria strains were tested: • Eschericha coli 1103, 10233, BL 21 AI, DC 2, • Klebsiella pneumoniae 681, • Micrococcus luteus ATCC 10240, • Mycobacterium vaccae • Bactillus subtillis 347.

E. coli BL 21 AI = test: Growth inhibition assay (MIC); type: cell-based, Escherichia coli; conditions: 1% TSB, 37° C., 20 hrs
Method: as §1, §2

Compound	MIC M. luteus ATCC 10240 (M. luteus ATCC 10240; ATCC 10240, 20 h) [µg/mL]	MIC M. luteus ATCC 10240 (M. luteus ATCC 10240; 1% TSB, 37° C., 20 hrs) [µg/mL]	MIC E. coli BL 21 AI (E. coli BL 21 AI) [µg/mL]
CC[C@H](C)[C@H](NC(=O)[C@H](Cc1ccc(O)cc1)NC(=O)[C@@H](NC(=O)[C@@H]1CCCN1C(=O)[C@H](CCCNC(=N)N)NC(=O)[C@H](CC(N)=O)NC(=O)[C@H](CC(N)=O)NC(=O)CN)C(C)C)C(=O)N1CCC[C@H]1C(=O)N[C@@H](CCC(N)=O)C(=O)N1CCC[C@H]1C(=O)N[C@@H](CCCNC(=N)N)C(=O)N1CCC[C@H]1C(=O)N1CCC[C@H]1C(=O)N[C@@H](Cc1c[nH]cn1)C(=O)N1CCC[C@H]1C(=O)N[C@@H](CCCNC(=N)N)C(=O)N[C@H](C(N)=O)C(C)(C)C [compound 78] (H-GNNRPVYIPQPRPPHPR[Tle]-NH2)	31.25 (≈ 14.8 µM)		
CC[C@H](C)[C@H](NC(=O)[C@H](CCCNC(=N)N)NC(=O)[C@@H]1CCCN1C(=O)[C@H](Cc1c[nH]cn1)NC(=O)[C@@H]1CCCN1C(=O)[C@@H]1CCCN1C(=O)[C@H](CCCNC(=N)N)NC(=O)[C@@H]1C[C@@H](O)CN1C(=O)[C@H](CCCNC(N)=O)NC(=O)[C@@H]1CCCN1C(=O)[C@@H](NC(=O)[C@H](Cc1ccc(O)cc1)NC(=O)[C@@H](NC(=O)[C@@H]1CCCN1C(=O)[C@H](CCCNC(=N)N)NC(=O)[C@H](CC(N)=O)NC(=O)[C@H](CC(N)=O)NC(=O)CN)C(C)C)[C@@H](C)CC)C(N)=O [compound 91] (H-GNNRPVYIP[Cit][Hyp]RPPHPRI-NH2)		7.81 (≈ 3.63 µM)	1.95 (≈ 0.906 µM)
CC[C@H](C)[C@H](NC(=O)[C@H](Cc1ccc(O)cc1)NC(=O)[C@@H](NC(=O)[C@@H]1CCCN1C(=O)[C@H](CCCNC(=N)N)NC(=O)[C@H](CC(N)=O)NC(=O)[C@H](CC(N)=O)NC(=O)[C@H](CCCN)NC(C)=O)C(C)C)C(=O)N1CCC[C@H]1C(=O)N[C@@H](CCCNC(=N)N)C(=O)N1CCC[C@H]1C(=O)N[C@@H](CCCNC(=N)N)C(=O)N1CCC[C@H]1C(=O)N1CCC[C@H]1C(=O)N[C@@H](Cc1c[nH]cn1)C(=O)N1CCC[C@H]1C(=O)N[C@@H](CCCNC(N)=N[N+](=O)[O-])C(=O)N[C@@H](CC(C)C)C(N)=O [compound 154] (Ac-[Orn]NNRPVYIPRPRPPHP[Arg(NO2)]L-NH2)	32 (≈ 14 µM)		16 (≈ 7.02 µM)
CC[C@H](C)[C@H](NC(=O)[C@H](Cc1ccc(O)cc1)NC(=O)[C@@H](NC(=O)[C@@H]1CCCN1C(=O)[C@H](CCCNC(=N)N)NC(=O)[C@H](CC(N)=O)NC(=O)[C@H](CC(N)=O)NC(=O)[C@H](CCCN)NC(C)=O)C(C)C)C(=O)N1CCC[C@H]1C(=O)N[C@@H](CCC(N)=O)C(=O)N1CCC[C@H]1C(=O)N[C@@H](CCCNC(=N)N)C(=O)N1CCC[C@H]1C(=O)N1CCC[C@H]1C(=O)N[C@@H](Cc1c[nH]cn1)C(=O)N1CCC[C@H]1C(=O)N[C@@H](CCCNC(=N)N)C(=O)N[C@H](C(N)=O)C(C)(C)C [compound 73] (Ac-[Orn]NNRPVYIPQPRPPHPR[Tle]-NH2)	7.81 (≈ 3.54 µM)		62.5 (≈ 28.3 µM)
CC[C@H](C)[C@H](NC(=O)[C@H](Cc1ccc(O)cc1)NC(=O)[C@@H](NC(=O)[C@@H]1CCCN1C(=O)[C@H](CCCNC(=N)N)NC(=O)[C@H](CC(N)=O)NC(=O)[C@H](CC(N)=O)NC(=O)CN)C(C)C)C(=O)N1CCC[C@H]1C(=O)N[C@@H](CCC(N)=O)C(=O)N1CCC[C@H]1C(=O)N[C@@H](CCCNC(=N)N)C(=O)N1CCC[C@H]1C(=O)N1CCC[C@H]1C(=O)N[C@@H](Cc1c[nH]cn1)C(=O)N1CCC[C@H]1C(=O)N[C@@H](CCCNC(=N)N)C(=O)N[C@@H](CC1CCCCC1)C(N)=O [compound 76] (H-GNNRPVYIPQPRPPHPR[Cha]-NH2)	15.63 (≈ 7.28 µM)		62.5 (≈ 29.1 µM)
CC[C@H](C)[C@H](NC(=O)[C@H](Cc1ccc(O)cc1)NC(=O)[C@@H](NC(=O)[C@@H]1CCCN1C(=O)[C@H](CCCNC(=N)N)NC(=O)[C@H](CC(N)=O)NC(=O)[C@H](CC(N)=O)NC(=O)[C@H](CCCN)NC(C)=O)C(C)C)C(=O)N1CCC[C@H]1C(=O)N[C@@H](CCCNC(=N)N)C(=O)N1CCC[C@H]1C(=O)N[C@@H](CCCNC(=N)N)C(=O)N1CCC[C@H]1C(=O)N1CCC[C@H]1C(=O)N[C@@H](Cc1c[nH]cn1)C(=O)N1CCC[C@H]1C(=O)N(C)[C@@H](CCCNC(=N)N)C(=O)N[C@@H](CC(C)C)C(N)=O [compound 153] (Ac-[Orn]NNRPVYIPRPRPPHP[NMeR]L-NH2)	32 (≈ 14.2 µM)		16 (≈ 7.12 µM)
CC[C@H](C)[C@H](NC(=O)[C@H](Cc1ccc(O)cc1)NC(=O)[C@@H](NC(=O)[C@@H]1CCCN1C(=O)[C@H](CCCNC(=N)N)NC(=O)[C@H](CC(N)=O)NC(=O)[C@H](CC(N)=O)NC(=O)[C@@H](N)CCCN)C(C)C)C(=O)N1CCC[C@H]1C(=O)N[C@@H](CCCN)C(=O)N1C[C@H](O)C[C@H]1C(=O)N[C@@H](CCCNC(=N)N)C(=O)N1CCC[C@H]1C(=O)N1CCC[C@H]1C(=O)N[C@@H](Cc1c[nH]cn1)C(=O)N1CCC[C@H]1C(=O)N[C@@H](CCCNC(=N)N)C(=O)N[C@@H](CC(C)C)C(N)=O [compound 102] (H-[Orn]NNRPVYIP[Orn][Hyp]RPPHPRL-NH2)		1.95 (≈ 0.9 µM)	1.95 (≈ 0.9 µM)
H-NNRPVYIPQPRPPHPRI-NH2 [compound 92]	31.25		3.91
CC[C@H](C)[C@H](NC(=O)[C@H](Cc1ccc(O)cc1)NC(=O)[C@@H](NC(=O)[C@@H]1CCCN1C(=O)[C@H](CCCNC(=N)N)NC(=O)[C@H](CC(N)=O)NC(=O)[C@H](CC(N)=O)NC(=O)[C@H](CCCN)NC(C)=O)C(C)C)C(=O)N1CCC[C@H]1C(=O)N[C@@H](CCC(N)=O)C(=O)N1CCC[C@H]1C(=O)N[C@@H](CCCNC(=N)N)C(=O)N1CCC[C@H]1C(=O)N1CCC[C@H]1C(=O)N[C@@H](Cc1c[nH]cn1)C(=O)N1CCC[C@H]1C(=O)N[C@@H](CCCNC(=N)N)C(=O)N[C@H](CC(C)C)C(N)=O [compound 72] (Ac-[Orn]NNRPVYIPQPRPPHPR[dL]-NH2)	7.81 (≈ 3.54 µM)		>125
CC[C@H](C)[C@H](NC(=O)[C@H](Cc1ccc(O)cc1)NC(=O)[C@@H](NC(=O)[C@@H]1CCCN1C(=O)[C@H](CCCNC(=N)N)NC(=O)[C@H](CC(N)=O)NC(=O)[C@H](CC(N)=O)NC(=O)CNC(C)=O)C(C)C)C(=O)N1CCC[C@H]1C(=O)N[C@@H](CCC(N)=O)C(=O)N1CCC[C@H]1C(=O)N[C@@H](CCCNC(=N)N)C(=O)N1CCC[C@H]1C(=O)N1CCC[C@H]1C(=O)N[C@@H](Cc1c[nH]cn1)C(=O)N1CCC[C@H]1C(=O)N[C@@H](CCCNC(N)=O)C(=O)N[C@@H](CC(C)C)C(N)=O [compound 148] (Ac-GNNRPVYIPQPRPPHP[Cit]L-NH2)	>125		>125
H-GNNRPVYIPRPRPPHPRLV-OH [compound 69]	0.24		7.81
CC[C@H](C)[C@H](NC(=O)[C@H](Cc1ccc(O)cc1)NC(=O)[C@@H](NC(=O)[C@@H]1CCCN1C(=O)[C@H](CCCNC(=N)N)NC(=O)[C@H](CC(N)=O)NC(=O)[C@H](CC(N)=O)NC(=O)[C@H](CCCN)NC(C)=O)C(C)C)C(=O)N1CCC[C@H]1C(=O)N[C@@H](CCCNC(=N)N)C(=O)N1CCC[C@H]1C(=O)N[C@@H](CCCNC(=N)N)C(=O)N1CCC[C@H]1C(=O)N1CCC[C@H]1C(=O)N[C@@H](Cc1c[nH]cn1)C(=O)N1CCC[C@H]1C(=O)N[C@H](CCCNC(=N)N)C(=O)N[C@@H](CC(C)C)C(N)=O [compound 152] (Ac-[Orn]NNRPVYIPRPRPPHP[dR]L-NH2)	32 (≈ 14.3 µM)		32 (≈ 14.3 µM)
H-RPVYIPQPRPPHPRL-NH2 [compound 142]	125		125
CC[C@H](C)[C@H](NC(=O)[C@H](CCCNC(=N)N)NC(=O)[C@@H]1CCCN1C(=O)[C@H](Cc1c[nH]cn1)NC(=O)[C@@H]1CCCN1C(=O)[C@@H]1CCCN1C(=O)[C@H](CCCNC(=N)N)NC(=O)[C@@H]1C[C@@H](O)CN1C(=O)[C@H](CCCNC(=N)N)NC(=O)[C@@H]1CCCN1C(=O)[C@@H](NC(=O)[C@H](Cc1ccc(O)cc1)NC(=O)[C@@H](NC(=O)[C@@H]1CCCN1C(=O)[C@H](CCCNC(=N)N)NC(=O)[C@H](CC(N)=O)NC(=O)[C@H](CC(N)=O)NC(=O)CN)C(C)C)[C@@H](C)CC)C(N)=O [compound 90] (H-GNNRPVYIPR[Hyp]RPPHPRI-NH2)	7.81 (≈ 3.63 µM)		
CC[C@H](C)[C@H](NC(=O)[C@H](Cc1ccc(O)cc1)NC(=O)[C@@H](NC(=O)[C@@H]1CCCN1C(=O)[C@H](CCCNC(=N)N)NC(=O)[C@H](CC(N)=O)NC(=O)[C@H](CC(N)=O)NC(=O)[C@H](CCCN)N=C(N(C)C)N(C)C)C(C)C)C(=O)N1CCC[C@H]1C(=O)N[C@@H](CCCNC(=N)N)C(=O)N1CCC[C@H]1C(=O)N[C@@H](CCCNC(=N)N)C(=O)N1CCC[C@H]1C(=O)N1CCC[C@H]1C(=O)N[C@@H](Cc1c[nH]cn1)C(=O)N1CCC[C@H]1C(=O)N[C@@H](CCCNC(N)=O)C(=O)N[C@@H](CC(C)C)C(N)=O [compound 151] ({Orn(α-tetramethylguanidino)}-NNRPVYIPRPRPPHP[Cit]L-NH2; N-terminus and C-terminus assumed)	64 (≈ 27.9 µM)		
